Laboratory results published in ChEMBL document CHEMBL1159033, “Inhibition of angiotensin-I-converting enzyme by tetrahydroxyxanthones isolated from Tripterospermum lanceolatum” (J Nat Prod, 1992).
pIC50, pKi: −log10 of the molar value.

Assays:
[1] = molecular target: T1, Angiotensin-converting enzyme (Homo sapiens, UniProt P12821); test: Inhibition of ACE at 200 uM
[2] = molecular target: T1, Angiotensin-converting enzyme; test: Inhibition of ACE by Lineweaver-Burke plot
[3] = molecular target: T1, Angiotensin-converting enzyme; test: Inhibition of ACE at 400 uM
[4] = molecular target: T1, Angiotensin-converting enzyme; test: Inhibition of ACE
[5] = molecular target: T1, Angiotensin-converting enzyme; test: Inhibition of ACE at 100 uM
Rattus norvegicus [6] = test: Antihypertensive activity in spontaneously hypertensive rat assessed as inhibition of angiotensin 1-induced vasopressive response at 0.4 mg/kg, iv after 20 mins; type: functional
Rattus norvegicus [7] = test: Antihypertensive activity in spontaneously hypertensive rat assessed as inhibition of angiotensin 1-induced vasopressive response at 0.4 mg/kg, iv after 30 mins; type: functional; settings: 0.5 h
Rattus norvegicus [8] = test: Antihypertensive activity in spontaneously hypertensive rat assessed as inhibition of angiotensin 1-induced vasopressive response at 0.4 mg/kg, iv after 10 mins; type: functional
Rattus norvegicus [9] = test: Antihypertensive activity in spontaneously hypertensive rat assessed as inhibition of angiotensin 1-induced vasopressive response at 0.04 mg/kg, iv after 30 mins; type: functional; settings: 0.5 h
Rattus norvegicus [10] = test: Antihypertensive activity in spontaneously hypertensive rat assessed as inhibition of angiotensin 1-induced vasopressive response at 0.04 mg/kg, iv after 10 mins; type: functional
Rattus norvegicus [11] = test: Antihypertensive activity in spontaneously hypertensive rat assessed as inhibition of angiotensin 1-induced vasopressive response at 0.04 mg/kg, iv after 20 mins; type: functional
Rattus norvegicus [12] = test: Antihypertensive activity in spontaneously hypertensive rat assessed as inhibition of angiotensin 1-induced vasopressive response at 80 mg/kg, iv after 30 mins; type: functional; settings: 0.5 h
Rattus norvegicus [13] = test: Antihypertensive activity in spontaneously hypertensive rat assessed as inhibition of angiotensin 1-induced vasopressive response at 40 mg/kg, iv after 30 mins; type: functional; settings: 0.5 h
Rattus norvegicus [14] = test: Antihypertensive activity in spontaneously hypertensive rat assessed as inhibition of angiotensin 1-induced vasopressive response at 80 mg/kg, iv after 10 mins; type: functional
Rattus norvegicus [15] = test: Antihypertensive activity in spontaneously hypertensive rat assessed as inhibition of angiotensin 1-induced vasopressive response at 40 mg/kg, iv after 10 mins; type: functional
Rattus norvegicus [16] = test: Antihypertensive activity in spontaneously hypertensive rat assessed as inhibition of angiotensin 1-induced vasopressive response at 40 mg/kg, iv after 20 mins; type: functional
Rattus norvegicus [17] = test: Antihypertensive activity in spontaneously hypertensive rat assessed as inhibition of angiotensin 1-induced vasopressive response at 20 mg/kg, iv after 30 mins; type: functional; settings: 0.5 h
Rattus norvegicus [18] = test: Antihypertensive activity in spontaneously hypertensive rat assessed as inhibition of angiotensin 1-induced vasopressive response at 20 mg/kg, iv after 20 mins; type: functional
Rattus norvegicus [19] = test: Antihypertensive activity in spontaneously hypertensive rat assessed as inhibition of angiotensin 1-induced vasopressive response at 20 mg/kg, iv after 10 mins; type: functional
Rattus norvegicus [20] = test: Antihypertensive activity in spontaneously hypertensive rat assessed as inhibition of angiotensin 1-induced vasopressive response at 80 mg/kg, iv after 20 mins; type: functional

T1 sequence (P12821 whole entry): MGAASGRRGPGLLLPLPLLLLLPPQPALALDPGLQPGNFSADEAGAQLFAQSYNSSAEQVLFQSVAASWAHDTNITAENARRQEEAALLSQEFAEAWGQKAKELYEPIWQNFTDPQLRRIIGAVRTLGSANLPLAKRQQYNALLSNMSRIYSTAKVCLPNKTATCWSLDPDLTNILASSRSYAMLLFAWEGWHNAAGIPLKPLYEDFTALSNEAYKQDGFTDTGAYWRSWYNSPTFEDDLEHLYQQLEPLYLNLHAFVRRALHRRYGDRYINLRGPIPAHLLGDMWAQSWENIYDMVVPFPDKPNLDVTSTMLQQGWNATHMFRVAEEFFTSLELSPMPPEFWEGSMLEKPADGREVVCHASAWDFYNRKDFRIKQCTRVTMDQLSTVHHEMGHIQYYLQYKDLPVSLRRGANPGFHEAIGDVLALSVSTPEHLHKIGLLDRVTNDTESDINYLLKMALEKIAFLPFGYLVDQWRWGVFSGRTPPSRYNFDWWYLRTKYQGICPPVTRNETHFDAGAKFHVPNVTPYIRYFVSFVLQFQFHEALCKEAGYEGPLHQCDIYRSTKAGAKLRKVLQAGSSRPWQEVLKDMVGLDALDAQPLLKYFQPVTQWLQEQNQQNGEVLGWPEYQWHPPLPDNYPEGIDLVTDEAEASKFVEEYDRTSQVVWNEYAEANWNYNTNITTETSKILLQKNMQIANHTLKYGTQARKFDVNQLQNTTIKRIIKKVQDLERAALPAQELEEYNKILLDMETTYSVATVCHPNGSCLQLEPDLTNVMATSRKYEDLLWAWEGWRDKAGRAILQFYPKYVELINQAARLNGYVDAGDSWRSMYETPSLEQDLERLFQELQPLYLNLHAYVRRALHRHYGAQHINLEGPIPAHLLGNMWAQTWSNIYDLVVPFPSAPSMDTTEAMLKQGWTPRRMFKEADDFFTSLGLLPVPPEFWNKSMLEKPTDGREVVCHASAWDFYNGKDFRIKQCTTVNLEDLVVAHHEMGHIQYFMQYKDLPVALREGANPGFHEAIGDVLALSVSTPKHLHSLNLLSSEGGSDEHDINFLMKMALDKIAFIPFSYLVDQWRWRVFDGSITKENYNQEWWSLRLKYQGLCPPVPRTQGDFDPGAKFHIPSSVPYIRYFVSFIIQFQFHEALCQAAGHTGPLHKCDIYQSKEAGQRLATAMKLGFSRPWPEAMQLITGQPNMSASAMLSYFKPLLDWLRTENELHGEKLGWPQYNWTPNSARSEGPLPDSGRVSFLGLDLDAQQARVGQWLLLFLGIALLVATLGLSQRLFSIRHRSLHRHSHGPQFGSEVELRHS

inhibition [1]	pKi [2]	inhibition [3]	pIC50 [4]	inhibition [5]	Compound	other results
23.5%	3.60	40.3%	3.28	15.5%	O=c1c2cc(O)c(O)cc2oc2cc(O)cc(O)c12	
46.2%	3.90	55.5%	3.62	34.3%	O=c1c2ccc(O)c(O)c2oc2c(O)c(O)ccc12	
					C[C@H](CS)C(=O)N1CCC[C@H]1C(=O)O [CAPTOPRIL]	inhibition in vivo at 0.4 mg/kg (Rattus norvegicus [6]): 66.6%; inhibition in vivo at 0.4 mg/kg (Rattus norvegicus [7]): 45.5%; inhibition in vivo at 0.4 mg/kg (Rattus norvegicus [8]): 78.5%; inhibition in vivo at 0.04 mg/kg (Rattus norvegicus [9]): 0%; inhibition in vivo at 0.04 mg/kg (Rattus norvegicus [10]): 10%; inhibition in vivo at 0.04 mg/kg (Rattus norvegicus [11]): 0%
				9.82%	CC(=O)Oc1cc2oc3c(OC(C)=O)c(OC(C)=O)ccc3c(=O)c2cc1OC(C)=O	
				< 1%	CC(=O)Oc1cc2oc3cc(OC(C)=O)c(OC(C)=O)cc3c(=O)c2cc1OC(C)=O	
17.2%		26.8%	< 3.11	11.7%	O=c1c2cc(O)c(O)cc2oc2cc(O)c(O)cc12	
				< 1%	CC(=O)Oc1cc(OC(C)=O)c2c(=O)c3cc(OC(C)=O)c(OC(C)=O)cc3oc2c1	
90%	4.85	95%		83.1%	O=c1c2cc(O)c(O)cc2oc2c(O)c(O)ccc12	inhibition in vivo at 80 mg/kg (Rattus norvegicus [12]): 13%; inhibition in vivo at 40 mg/kg (Rattus norvegicus [13]): 10%; inhibition in vivo at 80 mg/kg (Rattus norvegicus [14]): 52.7%; inhibition in vivo at 40 mg/kg (Rattus norvegicus [15]): 47.8%; inhibition in vivo at 40 mg/kg (Rattus norvegicus [16]): 30.8%; inhibition in vivo at 20 mg/kg (Rattus norvegicus [17]): 0%; inhibition in vivo at 20 mg/kg (Rattus norvegicus [18]): 5.9%; inhibition in vivo at 20 mg/kg (Rattus norvegicus [19]): 33.8%; inhibition in vivo at 80 mg/kg (Rattus norvegicus [20]): 32.5%
				< 1%	CC(=O)Oc1cc(OC(C)=O)c2c(=O)c3ccc(OC(C)=O)c(OC(C)=O)c3oc2c1	
				7%	CC(=O)Oc1ccc2c(=O)c3ccc(OC(C)=O)c(OC(C)=O)c3oc2c1OC(C)=O	

Compound	inhibition [1]	pKi [2]	inhibition [3]	pIC50 [4]	inhibition [5]	other results
O=c1c2ccc(O)c(O)c2oc2cc(O)cc(O)c12	67.7%	4.47	75.3%	4.16	56.4%	
